Data reported in patent US10472347B2, “Aminopyrazine compounds with A2A antagonist properties” (Merck Sharp & Dohme Corp., priority 2014, dated 2019).

What follows are compounds tested against T1, human A2a receptor (Homo sapiens, UniProt P29274) (assay: A2a competition binding assay, Scintillation Proximity technology). Settings: membranes from HEK293 cells expressing human A2a receptor; Ki by Cheng-Prusoff equation.
T1 construct: purchased Perkin-Elmer RBHA2AM400UA; host or cells: HEK293 cells (membranes)
In short: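 Membranes from HEK293 cells expressing human A2a, adenosine deaminase-treated, incubated 1 h at room temperature with compound (3000 to 0.15 nM) and 0.5 nM tritiated pyrazolotriazolopyrimidine radioligand on WGA SPA beads in Ca/Mg-free PBS + 10 mM MgCl2. Non-specific binding with 1 μM CGS15943; Ki by Cheng-Prusoff.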

T1 sequence (P29274 whole entry): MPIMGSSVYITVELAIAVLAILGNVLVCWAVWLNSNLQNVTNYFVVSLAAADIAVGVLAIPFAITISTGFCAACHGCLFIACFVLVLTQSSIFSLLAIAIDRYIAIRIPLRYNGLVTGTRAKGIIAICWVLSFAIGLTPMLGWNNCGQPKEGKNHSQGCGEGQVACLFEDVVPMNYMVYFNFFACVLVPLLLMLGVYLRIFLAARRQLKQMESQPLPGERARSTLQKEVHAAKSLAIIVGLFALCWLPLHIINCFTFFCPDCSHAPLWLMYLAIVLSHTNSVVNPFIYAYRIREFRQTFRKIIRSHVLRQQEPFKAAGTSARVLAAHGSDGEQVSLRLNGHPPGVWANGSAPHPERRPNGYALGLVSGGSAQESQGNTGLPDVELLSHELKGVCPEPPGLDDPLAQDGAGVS

| SMILES | Ki |
| --- | --- |
| Cc1nc(C(=O)NCc2ncn(CC3CC3)c2C)c(N)nc1-c1ncco1 [Ex-100, 3-amino-N-{[1-(cyclopropylmethyl)-5-methyl-1H-imidazol-4-yl]methyl}-6-methyl-5-(1,3-oxazol-2-yl)pyrazine-2-carboxamide] | 110 nM |
| Cc1nc(C(=O)NCc2c(Cl)cccc2Cl)c(N)nc1-c1cnco1 [Ex-255, 3-amino-N-(2,6-dichlorobenzyl)-6-methyl-5-(1,3-oxazol-5-yl)pyrazine-2-carboxamide] | 0.2 nM |
| Cc1nc(C(=O)NCc2ncc(C(F)(F)F)cc2C2CC2)c(N)nc1-c1ncco1 [Ex-182, 3-amino-N-{[3-cyclopropyl-5-(trifluoromethyl)pyridin-2-yl]methyl}-6-methyl-5-(1,3-oxazol-2-yl)pyrazine-2-carboxamide] | 2.7 nM |
| Cc1nc(C(=O)N[C@H]2CCc3ccccc32)c(N)nc1-c1ncco1 [Ex-138, 3-amino-N-[(1S)-2,3-dihydro-1H-inden-1-yl]-6-methyl-5-(1,3-oxazol-2-yl)pyrazine-2-carboxamide] | 0.588 nM |
| Cc1nc(C(=O)NCc2nccc3c2ccn3C)c(N)nc1-c1ncco1 [Ex-214] | 0.689 nM |
| Cc1nc(C(=O)NCc2cccc(C(C)(C)O)n2)c(N)nc1-c1ncco1 [Ex-119] | 6.24 nM |
| Cc1cn(C)c(CNC(=O)c2nc(C)c(-c3ncco3)nc2N)n1 [Ex-120, 3-amino-N-[(1,4-dimethyl-1H-imidazol-2-yl)methyl]-6-methyl-5-(1,3-oxazol-2-yl)pyrazine-2-carboxamide] | 5.81 nM |
| COc1ccccc1CNC(=O)c1nc(Cl)c(-n2nccn2)nc1N [Ex-283, 3-amino-6-chloro-N-(2-methoxybenzyl)-5-(2H-1,2,3-triazol-2-yl)pyrazine-2-carboxamide] | 2.4 nM |
| Cc1cccnc1CNC(=O)c1nc(Cl)c(-n2nccn2)nc1N [Ex-282, 3-amino-6-chloro-N-[(3-methylpyridin-2-yl)methyl]-5-(2H-1,2,3-triazol-2-yl)pyrazine-2-carboxamide] | 1.4 nM |
| Cc1nc(C(=O)NCc2c(F)cccc2F)c(N)nc1-c1ncco1 [Ex-11, 3-amino-N-(2,6-difluorobenzyl)-6-methyl-5-(1,3-oxazol-2-yl)pyrazine-2-carboxamide] | 0.125 nM |
| Cc1nc(C(=O)NC2CCC(F)(F)C2)c(N)nc1-c1ncco1 (centres unmarked) [Ex-115, 3-amino-N-(3,3-difluorocyclopentyl)-6-methyl-5-(1,3-oxazol-2-yl)pyrazine-2-carboxamide] | 8.74 nM |
| Cc1nc(C(=O)NCc2cccnc2Cl)c(N)nc1-c1ncco1 [Ex-65, 3-amino-N-[(2-chloropyridin-3-yl)methyl]-6-methyl-5-(1,3-oxazol-2-yl)pyrazine-2-carboxamide] | 4.19 nM |
| Cc1cnn(-c2nc(N)c(C(=O)NCc3cccc4nccnc34)nc2Cl)c1 [Ex-357, 3-amino-6-chloro-5-(4-methyl-1H-pyrazol-1-yl)-N-(quinoxalin-5-ylmethyl)pyrazine-2-carboxamide] | 69.4 nM |
| Nc1nc(-n2nccn2)c(Cl)nc1C(=O)N[C@H](CO)Cc1ccccc1 [Ex-320, 3-amino-N-[(1S)-1-benzyl-2-hydroxyethyl]-6-chloro-5-(2H-1,2,3-triazol-2-yl)pyrazine-2-carboxamide] | 149 nM |
| Nc1nc(-n2nccn2)c(Cl)nc1C(=O)NCc1ccnc2ccccc12 [Ex-301, 3-amino-6-chloro-N-(quinolin-4-ylmethyl)-5-(2H-1,2,3-triazol-2-yl)pyrazine-2-carboxamide] | 182 nM |
| COc1ccc(C)c(CNC(=O)c2nc(C)c(-c3ncco3)nc2N)n1 [Ex-80, 3-amino-N-[(6-methoxy-3-methylpyridin-2-yl)methyl]-6-methyl-5-(1,3-oxazol-2-yl)pyrazine-2-carboxamide] | 1.59 nM |
| Cc1cnn(-c2nc(N)c(C(=O)NCc3cccc4cccnc34)nc2C(F)F)c1 [Ex-387, 3-amino-6-(difluoromethyl)-5-(4-methyl-1H-pyrazol-1-yl)-N-(quinolin-8-ylmethyl)pyrazine-2-carboxamide] | 2.8 nM |
